From patent US20250146074A1 (The General Hospital Corporation, priority 2023, published 2025)
Blank lines part the entries; values can stand above or below the compound they belong to.

Legend:
[1] = human, in vivo; cited from earlier work
[2] = system: F. prausnitzii acyl-CoA N-acetyltransferase (FpGNAT, UniRef90 ID C7H1G6); test: In vitro mass spectrometry end-point assay for 5-ASA acetylation; type: biochemical, Faecalibacterium prausnitzii; conditions: 6 hr at 37° C., 1 mM of each substrate, 50 μM enzyme
Excerpt: (§1) Having identified thiolase and acyl-CoA N-acetyltransferase superfamilies with potential 5-ASA-inactivating capabilities, we sought to biochemically confirm these predicted activities in vitro. […] We expressed the known NAT from Salmonella enterica, the candidate thiolase from Firmicutes CAG:176 (UniRef90 ID R6CZ24), and the acyl-CoA N-acetyltransferase from F. prausnitzii (UniRef90 ID C7H1G6) for further biochemical characterization (FIG. 14a). […] The known S. enterica enzyme served as a positive control (FIG. 14b).
(§2) Identities of the constructs were confirmed with DNA sequencing and then were transformed into E. coli BL21 strains for expression according to the standardized protocols from GenScript. All E. coli expression constructs were grown anaerobically in sealed Hungate tubes in Terrific Broth (VWR) supplemented with 5 mM MgSO4 and kanamycin (50 μg/mL) and were incubated at 37° C. overnight before dilution at 1:100 into fresh media the following morning. […]
(§3) The samples were injected into an Infinity Lab Poroshell120 Hilic column (2.1×100 mm 2.7 μm) at 25° C. […] For absolute quantification, all samples were normalized to the taurine internal standard and concentrations calculated against a standard curve.

[3] = system: Firmicutes CAG:176 thiolase (FcTHL, UniRef90 ID R6CZ24); test: as above; type: biochemical, Firmicutes bacterium CAG:176; conditions: 6 hr at 37° C., 1 mM of each substrate, 50 μM enzyme
Excerpt: as §1, §2, §3

[4] = system: Firmicutes CAG:176 thiolase (FcTHL); test: Kinetic assay of 5-ASA acetylation; type: biochemical, Firmicutes bacterium CAG:176; conditions: 5-ASA varied, 1 mM acetyl-CoA, 5 μM enzyme, 37° C.
Description: The samples were injected into an Infinity Lab Poroshell120 Hilic column (2.1×100 mm 2.7 μm) at 25° C. […] This was followed by a 3 second gradient to 40% mobile phase B. This was then followed by a 27 second gradient returning to 5% mobile phase A at a flow rate of 1200 μL/min. This flow rate and ratio was held for an additional 48 seconds. Additional column equilibration was carried out on a secondary pump for 117 seconds at 5% mobile phase A and a flow rate of 1000 μL/min. MS was conducted in negative ion mode using electrospray ionization. […] Other MS settings were as follows: heater temp 300° C., ESI nebulizer 45 psi, spray voltage 3.5 kV, acquisition time 100 ms/spectrum. […] For absolute quantification, all samples were normalized to the taurine internal standard and concentrations calculated against a standard curve.

fecal metabolome = test: Fecal metabolome pre- and post-5-ASA in new users (IBDMDB); type: in vivo, human; conditions: stool pre- vs post-5-ASA
Description: A portion of each selected stool sample (40-100 mg) and the entire volume of originating ethanol preservative were stored in 15-ml centrifuge tubes at −80° C. until all samples were collected. Samples were then thawed on ice and centrifuged (4° C., 5,000 g) for 5 min. Ethanol was evaporated using a gentle stream of nitrogen gas using a nitrogen evaporator (TurboVap LV; Biotage) and stored at −80° C. until all samples in the study had been dried. After a homogenization and vortexing process, the mixture was aliquoted and stored at −80° C. until LC-MS analyses.
A combination of four untargeted LC-MS methods were used to profile metabolites in the fecal homogenates, as previously published;^22 two methods that measure polar metabolites (a method that measures metabolites of intermediate polarity (for example, fatty acids and bile acids), and a lipid profiling method: 1) HILIC-pos (positive ion mode MS analyses of polar metabolites), 2) HILIC-neg (negative ion mode MS analysis of polar metabolites), 3) C18-neg (negative ion mode analysis of metabolites of intermediate polarity; for example, bile acids and free fatty acids), and 4) C8-pos. Lipids (polar and nonpolar). Additionally, pairs of pooled reference samples were inserted into the queue at intervals of approximately 20 samples for quality control and data standardization. […]
Raw LC-MS data were acquired to the data acquisition computer interfaced to each LC-MS system and then stored on a robust and redundant file storage system (Isilon Systems) accessed via the internal network at the Broad Institute. […] Identification of nontargeted metabolite LC-MS peaks was conducted by: i) matching measured retention times and masses to mixtures of reference metabolites analyzed in each batch; and ii) matching an internal database of >600 compounds that have been characterized using the Broad Institute methods. Temporal drift was monitored and normalized with the intensities of features measured in the pooled reference samples. […]

[5] = in vivo; cited from earlier work
[6] = in vivo; cited from earlier work; remark: listed apart in the source
colonic epithelial cells = conditions: cited from earlier work
[7] = system: Firmicutes CAG:176 thiolase (FcTHL); test: Promiscuity (substrate competition) assay of the thiolase with amine-containing xenobiotics; conditions: 1 mM substrate, 5 μM enzyme, room temperature 1 hour
Description: Enzyme concentrations were calculated according to Beer's Law with extinction coefficients calculated by Benchling software based on the amino acid sequences of the putative enzymes. […] Reactions were conducted at 37° C. for 6 hours for the initial endpoint assay and room temperature for 1 hour for the promiscuity assay. Quenching/extraction for the promiscuity assay was with equal volumes of acetonitrile and methanol. Quenching/extraction for the end-point was one part sample and nine-parts extraction mix (75% acetonitrile:25% methanol v/v with 10 μM 1,2-^13C2-taurine from Cambridge Isotopes as an internal standard for quantification). Samples were vortexed and cooled to −20° C. and then centrifuged prior to LC-MS analysis.
For the promiscuity assays, mass spectrometry analyses were conducted using an LC-MS system composed of an Agilent 1260 Infinity HPLC (Agilent Technologies) coupled to a 6530 Accurate-Mass QTOF LC-MS (Agilent Technologies). The samples were injected into a 150×3 mm Hypersil GOLD aQ column (Thermo Scientific) at 30° C. […] Remaining identities were inferred using calculated masses with a mass detection tolerance of 10 ppm. Raw data from the LC-MS were analyzed using Agilent MassHunter Qualitative Analysis 10.0 software.

Structure (SMILES): Nc1ccc(O)c(C(=O)O)c1 [5-ASA, 5-aminosalicylic acid]
IBD patients who fail to respond or eventually lose response [1]: over half
conversion of 5-ASA to N-acetyl 5-ASA using acetyl-CoA [2]: > 25%
conversion of 5-ASA to N-acetyl 5-ASA using acetyl-CoA [3]: > 25%
Km ([4]; +/−0.46 mM): 1880 µM
kcat ([4]; +/−0.0199): 0.00108 s⁻¹
abundance of fecal 2-aminoadipate following 5-ASA treatment (fecal metabolome; 13 new users): reduced
abundance of fecal nicotinic acid (NA) with 5-ASA (fecal metabolome): dropped
abundance of fecal nicotinuric acid (NUA) with 5-ASA (fecal metabolome): dramatically increased
intraluminal stool concentrations of 5-ASA (median) [5]: 30 mM

Structure (SMILES): CC(=O)Nc1ccc(O)c(C(=O)O)c1 [N-acetyl 5-ASA]
anti-inflammatory activity in placebo-controlled trials [6]: lacks anti-inflammatory activity
bioavailability to colonic epithelial cells (colonic epithelial cells): < 5%

acetylation of the compound by the thiolase [7]: did not observe any acetylation
Structure (SMILES): NNc1nncc2ccccc12 [hydralazine]

acetylation of the compound by the thiolase [7]: did not observe any acetylation
Structure (SMILES): CCN(CC)CCNC(=O)c1ccc(N)cc1 [procainamide]
